US20250057862A1, “SIALIC ACID COMPOSITIONS FOR USE IN INHIBITING AND TREATING INFECTIONS IN FISH” (LifeScience AS, priority 2021, published 2025)
“Also recorded” adds a separate entry of the source.

Legend:
[1] = Sialic acids in skin and intestinal mucus and plasma of salmon fed 1% Neu5Ac (bioavailability); format: in vivo, Atlantic salmon (Salmo salar)
Description: (§1) The example describes additional results obtained from feeding salmon a diet containing 1% Neu5Ac w/w. A feeding and morbidity experiment with Atlantic salmon (Salmo salar) was carried out at the Industrial Laboratory in Bergen (ILAB). The purpose of the trial was to investigate the effect of adding 1% Neu5Ac to feed on growth, certain fish health indicators, and the fish's resistance and welfare when infected with salmon lice and ILA virus, respectively. The trial included six main phases, the last two of which ran parallel with different infectious agents (FIG. 4).
Day 1-8: Acclimatization. Presmolt (approx. 40 g starting weight), freshwater phase. • Bulk weighing of all fish on day 1. • NB: All the fish received exclusively control feed during the acclimatization phase. • Day 8: First sampling. Day 9-41: Growth and preparation for smoltification, freshwater phase. • Different diets started (and continued) from day 9 onwards. • Light regime changed from 12:12 light/dark to 24 hours light on day 15. • Bulk weighing of fish on day 25. • Temperature increased from 12 to 14 degrees on day 28. • Smoltification starts in response to changed light regime and changed temperature. • Day 36: Second sampling. • Bulk weighing of fish on day 37. Day 42-50: Smoltification, transition and acclimatization to saltwater phase. • From 20 salt water from day 42, full salinity and presumed complete smoltification by day 44. • Day 50: Third sampling. • Day 51-78: Postsmolt, growth in seawater phase. • Growth on different diets, no other manipulations. • Day 78: Fourth sampling. […]
To separate life history effects from a general assessment of bioavailability, the samples from the longest continuous growth phase are first analyzed without experimental manipulations. […]

[2] = Example 2 mucosal health of gills and skin after sea lice challenge; format: in vivo, Atlantic salmon; conditions: fifteen days following challenge with salmon lice; 2 of 3 tanks
Description: An experiment was conducted to determine the mucosal health status of gills, dorsal skin and foregut of Atlantic salmon smolt and postsmolt given sialic acid (NANA) treatment at a single dose (1% in feed) or a control treatment and challenged by sea lice exposure.
Atlantic salmon were reared in the flow-through system of the ILAB facility at 12 C and were reared in freshwater through smoltification to seawater in six tanks, 3 tanks per treatment. The gills and dorsal skin of the fish (n=30 per date, 5 from each replicate tank) were individually sampled on each of the following dates. The foregut of 30 fish was sampled once, while skin samples were not collected on the same date. The samples were processed (buffered formalin fixation, paraffin embedding, sectioned and stained with PAS-AB), digitally scanned and analyzed for mucous cell density (% epithelium filled with mucous cells, A), defense (mucous) cell sizes (mucous cell area, μm^2, D) and defense activity (barrier status, =(1/(A:D))×1000).
The fish were transferred to two large holding tanks and challenged with salmon lice and sampled 15 days later.

[3] = Growth and condition (weight, length, fitness factor) on 1% Neu5Ac feed; format: in vivo, Atlantic salmon (Salmo salar); conditions: postsmolt, Day 78
Description: as §1
Day 1-8: Acclimatization. Presmolt (approx. 40 g starting weight), freshwater phase. • Bulk weighing of all fish on day 1. • NB: All the fish received exclusively control feed during the acclimatization phase. • Day 8: First sampling. Day 9-41: Growth and preparation for smoltification, freshwater phase. • Different diets started (and continued) from day 9 onwards. • Light regime changed from 12:12 light/dark to 24 hours light on day 15. • Bulk weighing of fish on day 25. • Temperature increased from 12 to 14 degrees on day 28. • Smoltification starts in response to changed light regime and changed temperature. • Day 36: Second sampling. • Bulk weighing of fish on day 37. Day 42-50: Smoltification, transition and acclimatization to saltwater phase. • From 20 salt water from day 42, full salinity and presumed complete smoltification by day 44. • Day 50: Third sampling. • Day 51-78: Postsmolt, growth in seawater phase. • Growth on different diets, no other manipulations. • Day 78: Fourth sampling. Day 79-94: Infection test—salmon lice • A proportion of the fish were taken out of all test vessels on day 79; anesthetized, marked, collected in a common large vessel and infected with salmon lice. • Bulk weighing of the fish taken out for the lice test. • The experimental fish were then distributed according to original diet group, in two new vessels, for further observation. • Day 94: […], lice test completed. […]

Free Neu5Ac in the intestinal mucosa vs control diet ([1]; postsmolt, Day 78): highly significant
Total Neu5Ac in the intestinal mucosa vs control diet (elevated level) ([1]; postsmolt, Day 78): weakly significant
Structure (SMILES): CC(=O)N[C@H]1[C@H]([C@H](O)[C@H](O)CO)OC(O)(C(=O)O)C[C@@H]1O (stereo partly shown) [Neu5Ac, N-acetyl neuraminic acid]
Bioavailability of free Neu5Ac in feed ([1]; 1% Neu5Ac in feed, salmon, listed as Free Neu5Ac): bioavailable; also recorded: biologically available
Gill mucous cell size after challenge [2]: not significantly reduced
% Increase in fitness (condition) factor vs control [3]: 19%
% Increase in length vs control [3]: 5%
% Increase in weight vs control [3]: 22%
